Assay results: ChEMBL document CHEMBL5370662, “Reactive Oxygen Species-Activated Metal-Free Carbon Monoxide Prodrugs for Targeted Cancer Treatment” (J Med Chem, 2023)
Activity calls are given as the source filed them. The calls are words filed in the database; no cut-off is given here.

How the values were obtained:
4T1 [1] = assay: Antiproliferative activity against mouse 4T1 cells assessed as inhibition of cell growth measured after 24 hrs by Cell Counting Kit-8 assay; format: functional, cell-based; settings: for IC50: 4T1, 24 h
4T1 [2] = assay: Antitumor activity against mouse 4T1 cells implanted in Balb/c mouse assessed as fold change in tumor volume at 10 mg/kg, iv administered on day 0,3, and 5 measured after 24 days (reference value: 25.5); format: functional; settings: for fold change (FC): time 24 day; for Activity: time 24.0 day
Panc02 [3] = assay: Antiproliferative activity against Panc02 cells assessed as inhibition of cell growth measured after 24 hrs by Cell Counting Kit-8 assay; format: functional, cell-based; settings: Mus musculus
[4] = Prodrug conversion in PBS buffer assessed as carbon monoxide release by measuring half life at pH 7.4 at 25 uM in presence of H2O2 by HPLC analysis; format: ADME; settings: pH 7.4, 25 µM
[5] = Toxicity in Balb/c mouse implanted with mouse 4T1 cells assessed as increase in survival rate at 10 mg/kg, iv administered on day 0,3, and 5 measured after 24 days (reference value: 27 days); format: organism-based; settings: in vivo, 576 h, time 24 day
[6] = Toxicity in Balb/c mouse implanted with mouse 4T1 cells assessed as change in body weight at 10 mg/kg, iv administered on day 0,3, and 5 measured after 24 days; format: organism-based; settings: in vivo, 576 h, time 24 day
[7] = Prodrug conversion in 1-Ac probed mouse 4T1 cells assessed as carbon monoxide release by measuring red fluorescence at 20 uM incubated for 6 hrs by hoechst dye based confocal laser scanning microscopic analysis; format: ADME, cell-based; settings: 4t1, 6 h
[8] = Prodrug conversion in Balb/c mouse implanted with mouse 4T1 cells assessed as carbon monoxide release in tumor by measuring red fluorescence at 10 mg/kg, iv incubated for 6 hrs followed by 1-Ac probe addition by hoechst dye based confocal laser scanning microscopic analysis; format: ADME, organism-based; settings: in vivo
[9] = Prodrug conversion in PBS buffer assessed as carbon monoxide release by measuring half life at pH 7.4 at 25 uM by HPLC analysis; format: ADME; settings: pH 7.4, 25 µM
[10] = Prodrug conversion in PBS buffer assessed as formation of 3',6'-dimethyl-[1,1':2',1''-terphenyl]-4'-carbonitrile by measuring half life at pH 7.4 at 25 uM measured after 24 hrs in presence of H2O2 by HPLC analysis; format: ADME; settings: pH 7.4, 24 h
[11] = Prodrug conversion in PBS buffer assessed as formation of oxidized intermediate by measuring half life at pH 7.4 at 25 uM measured after 24 hrs in presence of H2O2 by HPLC analysis; format: ADME; settings: pH 7.4, 24 h
Panc02 [12] = assay: Antiproliferative activity against Panc02 cells assessed as inhibition of cell growth upto 100 uM measured after 24 hrs by Cell Counting Kit-8 assay; format: functional, cell-based; settings: Mus musculus
4T1 [13] = assay: Antiproliferative activity against mouse 4T1 cells assessed as inhibition of cell growth upto 100 uM measured after 24 hrs by Cell Counting Kit-8 assay; format: functional, cell-based

SMILES: CCCCCS[C@H]1C(C=O)[C@]2(C)C(=O)[C@]1(C)C(c1ccccc1)=C2c1ccccc1 (stereo partly specified)
- IC50 (4T1 [1]): 29.4 µM
- fold change (FC) (4T1 [2]): 9.4
- IC50 (Panc02 [3]; Panc02, 24 h): 72.5 µM
- t1/2 [4]: 3.4 h
- Survival [5]: 42 days
- Activity [6]: Non-Toxic
- Drug metabolism [7]: Metabolite_Detected
- Drug metabolism [8]: Metabolite_Detected
- t1/2 [9]: 81.6 h

SMILES: CCCCCS[C@H]1C(C#N)[C@]2(C)C(=O)[C@]1(C)C(c1ccccc1)=C2c1ccccc1 (stereo partly specified)
- IC50 (4T1 [1]): > 100 µM
- fold change (FC) (4T1 [2]): 16.5
- t1/2 [10]: 12 h
- Drug metabolism [7]: Metabolite_Detected
- t1/2 [11]: 2 h
- Drug metabolism [8]: Metabolite_Detected
- Activity (Panc02 [12]): inactive

SMILES: Cc1ccc(S[C@H]2C(C#N)[C@]3(C)C(=O)[C@]2(C)C(c2ccccc2)=C3c2ccccc2)cc1 (stereo partly specified)
- t1/2 [10]: 12 h
- t1/2 [11]: 2 h

SMILES: Cc1cc(C#N)c(C)c(-c2ccccc2)c1-c1ccccc1
- Activity (4T1 [2]): inactive
- Activity (4T1 [13]): inactive
- Activity (Panc02 [12]): inactive

SMILES: Cc1ccc(S[C@H]2C(C=O)[C@]3(C)C(=O)[C@]2(C)C(c2ccccc2)=C3c2ccccc2)cc1 (stereo partly specified)
- t1/2 [4]: 2.2 h
- t1/2 [9]: 3 h

SMILES: CCCCCS[C@H]1C(C(=O)OC)[C@]2(C)C(=O)[C@]1(C)C(c1ccccc1)=C2c1ccccc1 (stereo partly specified)
- Activity (4T1 [1]): inactive
- Activity (4T1 [2]): inactive
- Activity (Panc02 [3]): inactive
- Drug metabolism [7]: Metabolite_Notdetected
- Drug metabolism [8]: Metabolite_Notdetected

SMILES: Cc1cc(C=O)c(C)c(-c2ccccc2)c1-c1ccccc1
- Activity (4T1 [1]): inactive
- Activity (4T1 [2]): inactive
- Activity (Panc02 [3]): inactive
